The values that follow come from PubChem BioAssay (NCI).

Among the test systems are HCT-116 colon; CAKI-1 renal; SK-MEL-2 melanoma; MOLT-4 leukemia; MDA-MB-435; SF-539 CNS; CCRF-CEM leukemia; KM12 colon; NCI-H23 lung; OVCAR-3 ovarian; LOX IMVI melanoma; NCI-H522 lung; SN12C renal; HL-60(TB) leukemia; IGROV1 ovarian; MDA-MB-231 breast; SF-268 CNS; SF-295 CNS; HOP-62 NSCLC.
What all share (experiment): growth of human tumour cells (NCI), 48 h

Structures are written as SMILES.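 48-hour exposure; five concentrations; linearly interpolated endpoints. TGI denotes the concentration required for complete inhibition of growth.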

As for `CC[C@@]1(O)C(=O)OCc2c1cc1n(c2=O)Cc2c-1nc1ccccc1c2/C=N\NC(=O)C[n+]1ccccc1`, the TGI was more than 38.1 µM in the assay with HCT-116 colon; 20 µM with CAKI-1 renal; more than 89.6 µM in the assay on SK-MEL-2 melanoma; 11.7 µM in the assay on MOLT-4 leukemia; more than 100 µM in the assay on MDA-MB-435; 0.971 µM with SF-539 CNS. In addition, the TGI in the assay with CCRF-CEM leukemia was more than 100 µM; in the assay with KM12 colon, more than 100 µM; in the assay on NCI-H23 lung it was 7.71 µM; with OVCAR-3 ovarian, more than 79.4 µM; in the assay with LOX IMVI melanoma, 6 µM; in the assay on NCI-H522 lung, more than 43.5 µM. Also, the TGI with SN12C renal was more than 69 µM; in the assay with HL-60(TB) leukemia it was more than 34.4 µM; in the assay with IGROV1 ovarian it was more than 100 µM; in the assay on MDA-MB-231 breast, more than 100 µM; with SF-268 CNS, more than 69.5 µM; with SF-295 CNS it was more than 21.3 µM.
Take `CC(C)(C)c1cc(S(=O)(=O)O)c2oc(-c3ccccc3)cc(=O)c2c1`: the TGI with HCT-116 colon, with CAKI-1 renal, in the assay with MOLT-4 leukemia, in the assay on HOP-62 NSCLC, with MDA-MB-435 and in the assay with SF-539 CNS was more than 100 µM throughout. Moreover, the TGI with CCRF-CEM leukemia, with KM12 colon, in the assay with NCI-H23 lung, in the assay with OVCAR-3 ovarian, in the assay with LOX IMVI melanoma and in the assay on NCI-H522 lung was more than 100 µM in each case. Also, the TGI in the assay with SN12C renal, in the assay on HL-60(TB) leukemia, in the assay on IGROV1 ovarian, with MDA-MB-231 breast, in the assay with SF-268 CNS and in the assay on SF-295 CNS was more than 100 µM in each case.
Take `Cc1nc(N)c(N2CCN(S(N)(=O)=O)CC2)c(=O)[nH]1`: the TGI in the assay with HCT-116 colon, in the assay on SK-MEL-2 melanoma, in the assay with MOLT-4 leukemia, with HOP-62 NSCLC, in the assay on MDA-MB-435 and in the assay on SF-539 CNS was more than 100 µM each time. The TGI in the assay with CCRF-CEM leukemia, in the assay on KM12 colon, in the assay with NCI-H23 lung, with OVCAR-3 ovarian, in the assay on LOX IMVI melanoma and with NCI-H522 lung was more than 100 µM each time. The TGI in the assay on SN12C renal, in the assay on HL-60(TB) leukemia, with MDA-MB-231 breast, with SF-268 CNS and in the assay on SF-295 CNS was more than 100 µM each time.
Consider `CN1CCC23c4c5ccc(Oc6nnnn6-c6ccccc6)c4OC2c2[nH]c4ccccc4c2CC3(O)C1C5` (stereo not given), for which the TGI in the assay on HCT-116 colon came out at 3.45 µM; in the assay with CAKI-1 renal, 4.77 µM; in the assay on SK-MEL-2 melanoma it was 3.28 µM; in the assay with MOLT-4 leukemia, 5.33 µM; in the assay with HOP-62 NSCLC it was 12.8 µM; in the assay with MDA-MB-435, 8.41 µM. The TGI in the assay with CCRF-CEM leukemia is 4.19 µM; in the assay on KM12 colon it was 7.68 µM; in the assay on NCI-H23 lung, 33.7 µM; in the assay with OVCAR-3 ovarian, 22.5 µM; in the assay on LOX IMVI melanoma, 3.75 µM; with NCI-H522 lung it was 4.01 µM. Besides, the TGI came out at 8.67 µM with SN12C renal; 3.69 µM in the assay with HL-60(TB) leukemia; 23 µM in the assay on IGROV1 ovarian; 4.16 µM with MDA-MB-231 breast; 21.2 µM with SF-268 CNS; 15.3 µM with SF-295 CNS.
As for `O=C(Nc1ccc(Cl)cc1)c1cc(S(=O)(=O)Nc2n[nH]c(Nc3ccc4ccccc4c3)n2)c(SSc2cc(Cl)c(C(=O)Nc3ccc(Cl)cc3)cc2S(=O)(=O)Nc2n[nH]c(Nc3ccc4ccccc4c3)n2)cc1Cl`, the TGI in the assay with HCT-116 colon is 39.5 µM; with CAKI-1 renal, 38 µM; in the assay on MOLT-4 leukemia, 42.3 µM; in the assay on HOP-62 NSCLC, 80.6 µM; with MDA-MB-435 it was more than 80.3 µM; in the assay with SF-539 CNS, 60.5 µM. Further, the TGI with CCRF-CEM leukemia came out at 43.6 µM; in the assay with KM12 colon, 50.4 µM; in the assay on NCI-H23 lung, 66.5 µM; with OVCAR-3 ovarian, 59.5 µM; in the assay with LOX IMVI melanoma, 37.8 µM; in the assay with NCI-H522 lung, 50.8 µM. Also, the TGI with SN12C renal is 59.2 µM; in the assay on HL-60(TB) leukemia, more than 63 µM; in the assay with IGROV1 ovarian, 56.1 µM; in the assay on MDA-MB-231 breast, 46.5 µM; with SF-268 CNS, more than 100 µM; with SF-295 CNS it was 58.3 µM.
On to `C[C@]12CC[C@H]3[C@@H](CCC4=CC(=O)CC[C@@H]43)[C@@H]1CC[C@]2(O)C(N)=O`, for which the TGI in the assay with HCT-116 colon, in the assay on SK-MEL-2 melanoma, in the assay on MOLT-4 leukemia, with HOP-62 NSCLC, in the assay on MDA-MB-435 and in the assay with SF-539 CNS was more than 100 µM throughout. Further, the TGI with CCRF-CEM leukemia, with KM12 colon, in the assay with NCI-H23 lung, in the assay on OVCAR-3 ovarian, with LOX IMVI melanoma and in the assay on NCI-H522 lung was more than 100 µM each time. For the same compound, the TGI with SN12C renal, in the assay with HL-60(TB) leukemia, in the assay with IGROV1 ovarian, with MDA-MB-231 breast, in the assay on SF-268 CNS and with SF-295 CNS was more than 100 µM each time.
Regarding `Cc1c(N=Nc2ccccc2)c(-c2ccccc2)n(C2OC(CO)C(O)C(O)C2O)c(=S)c1C#N` (stereo not given), the TGI with SK-MEL-2 melanoma came to 21.8 µM; with MOLT-4 leukemia it was 24.5 µM; with HOP-62 NSCLC, 23.2 µM; in the assay with MDA-MB-435, 19.5 µM; in the assay with SF-539 CNS, 20.6 µM; in the assay with KM12 colon, 11.6 µM. The TGI was 16.2 µM in the assay with NCI-H23 lung; 18 µM in the assay with OVCAR-3 ovarian; 12.4 µM in the assay on LOX IMVI melanoma; 14.1 µM in the assay on NCI-H522 lung; 28.5 µM with SN12C renal; more than 100 µM in the assay with HL-60(TB) leukemia. Also, the TGI in the assay with IGROV1 ovarian came out at 22.5 µM; in the assay with MDA-MB-231 breast it was 44.4 µM; with SF-268 CNS, 37 µM; in the assay on SF-295 CNS, 55.8 µM.
Regarding `CCOC(=O)/C(C#N)=C/Nc1c(C)n(C)n(-c2ccccc2)c1=O`, the TGI in the assay on HCT-116 colon, with CAKI-1 renal, with SK-MEL-2 melanoma, in the assay on MOLT-4 leukemia, with MDA-MB-435 and in the assay on SF-539 CNS was more than 100 µM in each case. For the same compound, the TGI in the assay on CCRF-CEM leukemia, in the assay with KM12 colon, with NCI-H23 lung, with OVCAR-3 ovarian, with LOX IMVI melanoma and in the assay with NCI-H522 lung was more than 100 µM each time. Further, the TGI in the assay with SN12C renal, in the assay with HL-60(TB) leukemia, in the assay with IGROV1 ovarian, in the assay with MDA-MB-231 breast and in the assay on SF-295 CNS was more than 100 µM each time.
